Laboratory results reported in the NIST ThermoML archive (doi:10.1016/j.jct.2016.07.020).
± gives the expanded uncertainty stated by the source.

Test: mn = molality of the nth substance listed, in mol/kg
Settings: 101.3 kPa, Liquid, Capillary tube (Ostwald / Ubbelohde) method

OC[C@H]1OC(O)C[C@@H](O)[C@@H]1O (stereo partly drawn) [2-deoxy-D-glucose] + O
viscosity (288.15 K, m1 = 0.04): 1.161 ± 0.041 mPa·s | viscosity (288.15 K, m1 = 0.06): 1.171 ± 0.041 mPa·s | viscosity (288.15 K, m1 = 0.0797): 1.18 ± 0.041 mPa·s | viscosity (288.15 K, m1 = 0.1001): 1.191 ± 0.041 mPa·s | viscosity (288.15 K, m1 = 0.1201): 1.201 ± 0.041 mPa·s | viscosity (288.15 K, m1 = 0.1399): 1.213 ± 0.041 mPa·s | viscosity (298.15 K, m1 = 0.04): 0.907 ± 0.04 mPa·s | viscosity (298.15 K, m1 = 0.06): 0.913 ± 0.04 mPa·s | viscosity (298.15 K, m1 = 0.0797): 0.919 ± 0.04 mPa·s | viscosity (298.15 K, m1 = 0.1001): 0.928 ± 0.04 mPa·s | viscosity (298.15 K, m1 = 0.1201): 0.936 ± 0.041 mPa·s | viscosity (298.15 K, m1 = 0.1399): 0.945 ± 0.041 mPa·s | viscosity (308.15 K, m1 = 0.04): 0.73 ± 0.04 mPa·s | viscosity (308.15 K, m1 = 0.06): 0.736 ± 0.04 mPa·s | viscosity (308.15 K, m1 = 0.0797): 0.742 ± 0.04 mPa·s | viscosity (308.15 K, m1 = 0.1001): 0.749 ± 0.04 mPa·s | viscosity (308.15 K, m1 = 0.1201): 0.754 ± 0.04 mPa·s | viscosity (308.15 K, m1 = 0.1399): 0.761 ± 0.04 mPa·s | viscosity (318.15 K, m1 = 0.04): 0.605 ± 0.04 mPa·s | viscosity (318.15 K, m1 = 0.06): 0.609 ± 0.04 mPa·s | viscosity (318.15 K, m1 = 0.0797): 0.615 ± 0.04 mPa·s | viscosity (318.15 K, m1 = 0.1001): 0.619 ± 0.04 mPa·s | viscosity (318.15 K, m1 = 0.1201): 0.624 ± 0.04 mPa·s | viscosity (318.15 K, m1 = 0.1399): 0.629 ± 0.04 mPa·s

O=C[C@H](O)[C@@H](O)[C@@H](O)[C@H](O)CO [(+)-galactose] + O
viscosity (288.15 K, m1 = 0.0402): 1.158 ± 0.041 mPa·s | viscosity (288.15 K, m1 = 0.0601): 1.168 ± 0.041 mPa·s | viscosity (288.15 K, m1 = 0.0792): 1.179 ± 0.041 mPa·s | viscosity (288.15 K, m1 = 0.0992): 1.19 ± 0.041 mPa·s | viscosity (288.15 K, m1 = 0.1199): 1.203 ± 0.041 mPa·s | viscosity (288.15 K, m1 = 0.139): 1.214 ± 0.041 mPa·s | viscosity (288.15 K, m1 = 0.1594): 1.224 ± 0.041 mPa·s | viscosity (288.15 K, m1 = 0.1793): 1.237 ± 0.041 mPa·s | viscosity (298.15 K, m1 = 0.0402): 0.905 ± 0.041 mPa·s | viscosity (298.15 K, m1 = 0.0601): 0.913 ± 0.041 mPa·s | viscosity (298.15 K, m1 = 0.0792): 0.92 ± 0.041 mPa·s | viscosity (298.15 K, m1 = 0.0992): 0.929 ± 0.041 mPa·s | viscosity (298.15 K, m1 = 0.1199): 0.938 ± 0.041 mPa·s | viscosity (298.15 K, m1 = 0.139): 0.945 ± 0.041 mPa·s | viscosity (298.15 K, m1 = 0.1594): 0.953 ± 0.041 mPa·s | viscosity (298.15 K, m1 = 0.1793): 0.961 ± 0.041 mPa·s | viscosity (308.15 K, m1 = 0.0601): 0.737 ± 0.04 mPa·s | viscosity (308.15 K, m1 = 0.0792): 0.743 ± 0.04 mPa·s | viscosity (308.15 K, m1 = 0.0992): 0.749 ± 0.04 mPa·s | viscosity (308.15 K, m1 = 0.1199): 0.755 ± 0.04 mPa·s | viscosity (308.15 K, m1 = 0.139): 0.76 ± 0.04 mPa·s | viscosity (308.15 K, m1 = 0.1594): 0.766 ± 0.04 mPa·s | viscosity (308.15 K, m1 = 0.1793): 0.773 ± 0.04 mPa·s | viscosity (318.15 K, m1 = 0.0402): 0.606 ± 0.04 mPa·s | viscosity (318.15 K, m1 = 0.0601): 0.611 ± 0.04 mPa·s | viscosity (318.15 K, m1 = 0.0792): 0.615 ± 0.04 mPa·s | viscosity (318.15 K, m1 = 0.0992): 0.618 ± 0.04 mPa·s | viscosity (318.15 K, m1 = 0.1199): 0.624 ± 0.04 mPa·s | viscosity (318.15 K, m1 = 0.139): 0.626 ± 0.04 mPa·s | viscosity (318.15 K, m1 = 0.1594): 0.631 ± 0.04 mPa·s | viscosity (318.15 K, m1 = 0.1793): 0.635 ± 0.04 mPa·s

O=C[C@H](O)[C@@H](O)[C@H](O)[C@H](O)CO [D-glucose] + O
viscosity (288.15 K, m1 = 0.04): 1.161 ± 0.041 mPa·s | viscosity (288.15 K, m1 = 0.0797): 1.181 ± 0.041 mPa·s | viscosity (288.15 K, m1 = 0.0999): 1.193 ± 0.041 mPa·s | viscosity (288.15 K, m1 = 0.1197): 1.204 ± 0.041 mPa·s | viscosity (288.15 K, m1 = 0.14): 1.216 ± 0.041 mPa·s | viscosity (288.15 K, m1 = 0.1598): 1.227 ± 0.041 mPa·s | viscosity (288.15 K, m1 = 0.1797): 1.241 ± 0.041 mPa·s | viscosity (298.15 K, m1 = 0.04): 0.907 ± 0.04 mPa·s | viscosity (298.15 K, m1 = 0.0599): 0.915 ± 0.04 mPa·s | viscosity (298.15 K, m1 = 0.0797): 0.924 ± 0.04 mPa·s | viscosity (298.15 K, m1 = 0.0999): 0.932 ± 0.04 mPa·s | viscosity (298.15 K, m1 = 0.1197): 0.94 ± 0.041 mPa·s | viscosity (298.15 K, m1 = 0.14): 0.947 ± 0.041 mPa·s | viscosity (298.15 K, m1 = 0.1598): 0.954 ± 0.041 mPa·s | viscosity (298.15 K, m1 = 0.1797): 0.961 ± 0.041 mPa·s | viscosity (308.15 K, m1 = 0.04): 0.733 ± 0.04 mPa·s | viscosity (308.15 K, m1 = 0.0599): 0.737 ± 0.04 mPa·s | viscosity (308.15 K, m1 = 0.0797): 0.744 ± 0.04 mPa·s | viscosity (308.15 K, m1 = 0.0999): 0.751 ± 0.04 mPa·s | viscosity (308.15 K, m1 = 0.1197): 0.756 ± 0.04 mPa·s | viscosity (308.15 K, m1 = 0.14): 0.762 ± 0.04 mPa·s | viscosity (308.15 K, m1 = 0.1598): 0.768 ± 0.04 mPa·s | viscosity (308.15 K, m1 = 0.1797): 0.774 ± 0.04 mPa·s | viscosity (318.15 K, m1 = 0.04): 0.606 ± 0.04 mPa·s | viscosity (318.15 K, m1 = 0.0599): 0.61 ± 0.04 mPa·s | viscosity (318.15 K, m1 = 0.0797): 0.614 ± 0.04 mPa·s | viscosity (318.15 K, m1 = 0.0999): 0.62 ± 0.04 mPa·s | viscosity (318.15 K, m1 = 0.1197): 0.624 ± 0.04 mPa·s | viscosity (318.15 K, m1 = 0.14): 0.629 ± 0.04 mPa·s | viscosity (318.15 K, m1 = 0.1598): 0.636 ± 0.04 mPa·s | viscosity (318.15 K, m1 = 0.1797): 0.64 ± 0.04 mPa·s

O=C[C@H](O)[C@@H](O)[C@H](O)CO [D-xylose] + O
viscosity (288.15 K, m1 = 0.0399): 1.155 ± 0.041 mPa·s | viscosity (288.15 K, m1 = 0.0601): 1.163 ± 0.041 mPa·s | viscosity (288.15 K, m1 = 0.0797): 1.173 ± 0.041 mPa·s | viscosity (288.15 K, m1 = 0.0993): 1.181 ± 0.041 mPa·s | viscosity (288.15 K, m1 = 0.1195): 1.188 ± 0.041 mPa·s | viscosity (288.15 K, m1 = 0.1391): 1.197 ± 0.041 mPa·s | viscosity (288.15 K, m1 = 0.1583): 1.206 ± 0.041 mPa·s | viscosity (288.15 K, m1 = 0.1783): 1.214 ± 0.041 mPa·s | viscosity (298.15 K, m1 = 0.0399): 0.901 ± 0.04 mPa·s | viscosity (298.15 K, m1 = 0.0601): 0.909 ± 0.04 mPa·s | viscosity (298.15 K, m1 = 0.0797): 0.914 ± 0.04 mPa·s | viscosity (298.15 K, m1 = 0.0993): 0.92 ± 0.04 mPa·s | viscosity (298.15 K, m1 = 0.1195): 0.927 ± 0.04 mPa·s | viscosity (298.15 K, m1 = 0.1391): 0.932 ± 0.04 mPa·s | viscosity (298.15 K, m1 = 0.1583): 0.937 ± 0.041 mPa·s | viscosity (298.15 K, m1 = 0.1783): 0.944 ± 0.041 mPa·s | viscosity (308.15 K, m1 = 0.0399): 0.727 ± 0.04 mPa·s | viscosity (308.15 K, m1 = 0.0601): 0.733 ± 0.04 mPa·s | viscosity (308.15 K, m1 = 0.0797): 0.739 ± 0.04 mPa·s | viscosity (308.15 K, m1 = 0.0993): 0.742 ± 0.04 mPa·s | viscosity (308.15 K, m1 = 0.1195): 0.747 ± 0.04 mPa·s | viscosity (308.15 K, m1 = 0.1391): 0.751 ± 0.04 mPa·s | viscosity (308.15 K, m1 = 0.1583): 0.756 ± 0.04 mPa·s | viscosity (308.15 K, m1 = 0.1783): 0.762 ± 0.04 mPa·s | viscosity (318.15 K, m1 = 0.0399): 0.603 ± 0.04 mPa·s | viscosity (318.15 K, m1 = 0.0601): 0.607 ± 0.04 mPa·s | viscosity (318.15 K, m1 = 0.0797): 0.61 ± 0.04 mPa·s | viscosity (318.15 K, m1 = 0.0993): 0.614 ± 0.04 mPa·s | viscosity (318.15 K, m1 = 0.1195): 0.618 ± 0.04 mPa·s | viscosity (318.15 K, m1 = 0.1391): 0.623 ± 0.04 mPa·s | viscosity (318.15 K, m1 = 0.1583): 0.626 ± 0.04 mPa·s | viscosity (318.15 K, m1 = 0.1783): 0.63 ± 0.04 mPa·s
